One may read the T/C as the result in the treated group divided by that in the control group, in per cent.

Several values for one entry are separate records, joined by “and”; a condition that tells them apart may be missing. Equal values may be shown once.

This experiment relates to BDF1 mice, Adenocarcinoma 755 s.c., tumor weight T/C. The experiment can be described thus: NCI In Vivo Anticancer Drug Screen. Data for tumor model Adenocarcinoma 755 (subcutaneous) in B6D2F1 (BDF1) mice. The note with it: endpoint: mean tumor weight, schedule: Q01DX011 (ip), higher = larger tumour. The method, boiled down:
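Tumor-bearing mice receive test compound while controls get vehicle alone. Antitumor effect is scored from survival or tumor dimensions as a T/C quotient.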

Setting [1] is: dose: 3.0 mg/kg/injection, vehicle: saline.
[2] abbreviates: dose: 15.0 mg/kg/injection, vehicle: methylcellulose (MC).
Where [3] appears, read: dose: 30.0 mg/kg/injection, vehicle: carboxymethylcellulose (CMC).
The mark [4] stands for this setting: dose: 60.0 mg/kg/injection, vehicle: carboxymethylcellulose (CMC).
Setting [5] is: dose: 120.0 mg/kg/injection, vehicle: carboxymethylcellulose (CMC).
Where [6] appears, read: dose: 240.0 mg/kg/injection, vehicle: carboxymethylcellulose (CMC).
The mark [7] stands for this setting: dose: 37.5 mg/kg/injection, vehicle: carboxymethylcellulose (CMC).
Where [8] appears, read: dose: 150.0 mg/kg/injection, vehicle: carboxymethylcellulose (CMC).
[9] abbreviates: dose: 300.0 mg/kg/injection, vehicle: carboxymethylcellulose (CMC).
Setting [10] is: dose: 30.0 mg/kg/injection, vehicle: methylcellulose (MC).

In the case of `CC1CN1P1(N2CC2C)=NP(N2CC2C)(N2CC2C)=NP(N2CC2C)(N2CC2C)=N1` (stereo not given), the T/C under setting [1] was 81 % of control; the T/C (dose: 5.0 mg/kg/injection, vehicle: saline) was 53 % of control; the T/C (dose: 9.0 mg/kg/injection, vehicle: saline) was 52 % of control; the T/C (dose: 18.0 mg/kg/injection, vehicle: saline) is 20 % of control and 35 % of control; the T/C (dose: 36.0 mg/kg/injection, vehicle: saline) was 9 % of control; the T/C (dose: 75.0 mg/kg/injection, vehicle: saline) was 24 % of control.

`Cn1cnc2nc[nH]c2c1=N`: the T/C runs as follows: (dose: 30.0 mg/kg/injection, vehicle: saline) 115 % of control; (dose: 60.0 mg/kg/injection, vehicle: saline) 93 % of control; (dose: 120.0 mg/kg/injection, vehicle: saline) 74 % of control; (dose: 240.0 mg/kg/injection, vehicle: saline) 109 % of control.

In the case of `CC(C)CN1CC(C)C(=O)N(c2ccccc2)C1=S` (stereo not given), the T/C is 51 % of control under setting [2]; 89 % of control (dose: 31.0 mg/kg/injection, vehicle: methylcellulose (MC)); 79 % of control (dose: 62.0 mg/kg/injection, vehicle: methylcellulose (MC)); 57 % of control (dose: 125.0 mg/kg/injection, vehicle: methylcellulose (MC)).

On to `N#CCSc1nc(N)nc2nc[nH]c12`, for which the T/C (dose: 0.5 mg/kg/injection, vehicle: carboxymethylcellulose (CMC)) is 82 % of control; the T/C (dose: 1.0 mg/kg/injection, vehicle: carboxymethylcellulose (CMC)) is 63 % of control; the T/C (dose: 2.0 mg/kg/injection, vehicle: carboxymethylcellulose (CMC)) was 70 % of control.

Take `Cc1ccc(S(=O)(=O)OCC2OC(n3cnc4c(=O)[nH]c(N)nc43)C(O)C2O)cc1` (stereo not given): the T/C reads like this: (dose: 5.0 mg/kg/injection, vehicle: carboxymethylcellulose (CMC)) 108 % of control; under setting [3], 97 % of control; under setting [4], 100 % of control; under setting [5], 98 % of control; under setting [6], 62 % of control.

For `CCC(C)Cn1cnc2c(SCc3ccccc3)nc(N)nc21` (stereo not given), the T/C was 68 % of control under setting [7]; 32 % of control (dose: 75.0 mg/kg/injection, vehicle: carboxymethylcellulose (CMC)); 21 % of control under setting [8]; 13 % of control under setting [9].

`[N-]=[N+]=[N-]`: the T/C reads like this: (dose: 1.06 mg/kg/injection, vehicle: carboxymethylcellulose (CMC)) 114 % of control; (dose: 1.55 mg/kg/injection, vehicle: carboxymethylcellulose (CMC)) 75 % of control; (dose: 2.13 mg/kg/injection, vehicle: carboxymethylcellulose (CMC)) 61 % of control; (dose: 3.1 mg/kg/injection, vehicle: carboxymethylcellulose (CMC)) 82 % of control; (dose: 4.25 mg/kg/injection, vehicle: carboxymethylcellulose (CMC)) 80 % of control; (dose: 6.2 mg/kg/injection, vehicle: carboxymethylcellulose (CMC)) 57 % of control. Moreover, the T/C reads like this: (dose: 8.5 mg/kg/injection, vehicle: carboxymethylcellulose (CMC)) 80 % of control; (dose: 12.4 mg/kg/injection, vehicle: carboxymethylcellulose (CMC)) 80 % of control.

In the case of `FC(F)(F)c1nc(=S)c2[nH]cnc2[nH]1`, the T/C runs as follows: (dose: 6.0 mg/kg/injection, vehicle: carboxymethylcellulose (CMC)) 70 % of control; (dose: 25.0 mg/kg/injection, vehicle: carboxymethylcellulose (CMC)) 81 % of control; (dose: 100.0 mg/kg/injection, vehicle: carboxymethylcellulose (CMC)) 89 % of control.

Take `C[C@H](CCC(=O)O)[C@H]1CC[C@H]2[C@@H]3[C@H](O)C[C@@H]4C[C@H](O)CC[C@]4(C)[C@H]3C[C@H](O)[C@]12C` (tested in a mixture with another compound): the T/C is 31 % of control and 53 % of control (dose: 80.0 mg/kg/injection, vehicle: methylcellulose (MC)); 76 % of control (dose: 160.0 mg/kg/injection, vehicle: methylcellulose (MC)); 36 % of control (dose: 320.0 mg/kg/injection, vehicle: methylcellulose (MC)).

Consider `CCCC(=O)OCC1OC(n2cnc3c(=S)nc[nH]c32)C(OC(=O)CCC)C1OC(=O)CCC` (stereo not given), for which the T/C (dose: 3.0 mg/kg/injection, vehicle: other) is 48 % of control; the T/C (dose: 3.12 mg/kg/injection, vehicle: other) was 75 % of control; the T/C (dose: 6.0 mg/kg/injection, vehicle: other) is 16 % of control; the T/C (dose: 6.25 mg/kg/injection, vehicle: other) was 13 % of control; the T/C (dose: 12.0 mg/kg/injection, vehicle: other) was 6 % of control; the T/C (dose: 12.5 mg/kg/injection, vehicle: other) is 4 % of control.

On to `CCCCn1cnc2c(SCc3ccc(Br)cc3)nc(N)nc21`, for which the T/C by setting is: (dose: 12.5 mg/kg/injection, vehicle: methylcellulose (MC)) 47 % of control; (dose: 25.0 mg/kg/injection, vehicle: methylcellulose (MC)) 66 % of control; (dose: 50.0 mg/kg/injection, vehicle: methylcellulose (MC)) 82 % of control; (dose: 100.0 mg/kg/injection, vehicle: methylcellulose (MC)) 49 % of control.

As for `Cn1c(N)cc(=O)[nH]c1=S`, the T/C was 98 % of control (dose: 3.5 mg/kg/injection, vehicle: methylcellulose (MC)); 40 % of control (dose: 7.0 mg/kg/injection, vehicle: methylcellulose (MC)); 65 % of control under setting [2]; 79 % of control under setting [10]; 29 % of control (dose: 60.0 mg/kg/injection, vehicle: methylcellulose (MC)).

Take `Nc1nc(SCc2ccccn2)c2ncn(C3CCCC3)c2n1`: the T/C is 79 % of control (dose: 1.1 mg/kg/injection, vehicle: carboxymethylcellulose (CMC)); 96 % of control (dose: 2.3 mg/kg/injection, vehicle: carboxymethylcellulose (CMC)); 74 % of control (dose: 4.6 mg/kg/injection, vehicle: carboxymethylcellulose (CMC)); 22 % of control (dose: 9.3 mg/kg/injection, vehicle: carboxymethylcellulose (CMC)); 2 % of control under setting [7].

Regarding `O=C(O)CCC(=O)Nc1nccs1`, the T/C was 71 % of control under setting [8]; 83 % of control under setting [9]; 63 % of control (dose: 600.0 mg/kg/injection, vehicle: carboxymethylcellulose (CMC)).

With `O=C(Nc1ccc(C2=NCCN2)cc1)c1ccc(N=Nc2ccc(C(=O)Nc3ccc(C4=NCCN4)cc3)cc2)cc1`, the T/C is, setting by setting: under setting [2], 151 % of control; under setting [10], 119 % of control; (dose: 120.0 mg/kg/injection, vehicle: methylcellulose (MC)) 100 % of control.

Take `CSc1nc(Cl)cc(NC(=O)CCl)n1`: the T/C under setting [4] was 124 % of control.

Turning to `Cn1c(N)c(C(=O)CCl)c(=O)n(C)c1=O`, the T/C under setting [3] is 66 % of control.

As to `CC1CN1P(=O)(N1CCCCC1)N1CC1C` (stereo not given), the T/C under setting [1] is 107 % of control and 86 % of control; the T/C (dose: 6.0 mg/kg/injection, vehicle: saline) is 57 % of control and 71 % of control; the T/C (dose: 48.0 mg/kg/injection, vehicle: saline) is 11 % of control.

Take `CC(=O)OCC1OC(n2c(Br)nc3c(=O)[nH]c(N)nc32)C(OC(C)=O)C1OC(C)=O` (stereo not given): the T/C was 95 % of control under setting [3], 119 % of control under setting [4], 90 % of control under setting [5] and 82 % of control under setting [6].

(Values after PubChem BioAssay AID180 (DTP/NCI, 2004).)
